The values below come from US20060194845A1, “Use of ALK 5 inhibitors to modulate or inhibit myostatin activity leading to increased lean tissue accretion in animals” (Schering Corporation, priority 2004, published 2006).

The test relates to rats. The test is described as follows: Effect of Compound A on lean and fat tissue content in rats (Molecular Resonance Imaging). Format: in vivo, rat. To be noted: 10 mg/kg in feed. Here is the method: Ten animals were treated with Compound A and a second group of ten animals served as a control group. Baseline values, in grams, of lean and fat tissue were assessed using […] Resonance Imaging technology for all animals.

In the case of `NC(=O)c1ccc(-c2nc(-c3ccc4c(c3)OCO4)c(-c3ccccn3)[nH]2)cc1` [Compound A], the “fat content vs control (observation in words)” value is “slight trend towards decreased fat content”. Further, under “21 days”, the “Fat (g) Δ (change in grams of tissue from baseline)” value is on record as 50.6 g and the “Lean (g) Δ (change in grams of tissue from baseline)” value stood at 93.7 g. Also, the “Fat (g) Δ (change in grams of tissue from baseline)” value (39 days) was 73.6 g. The “increase in lean tissue compared to the control group” value (39 days, 137.8 vs. 115.3, p<0.0036) is 19.6%. Further, for the setting “39 days, p<0.0036 vs control, 10 mg/kg”, the “Lean (g) Δ (change in grams of tissue from baseline)” value came to 137.8 g.
